Source: PubChem BioAssay AID330 (DTP/NCI, 2004)
Several values for one entry are separate records, joined by “and”; a condition that tells them apart may be missing. Equal values may be shown once. Toxic doses and inconclusive results are not listed.

Tested on: P388 leukemia ip, CD2F1 mice, survival T/C
Test: NCI In Vivo Anticancer Drug Screen. Data for tumor model P388 Leukemia (intraperitoneal) in CD2F1 (CDF1) mice
Conditions: endpoint: median survival time, higher = longer survival
Summary of the method: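 Mice carrying the transplanted tumor received test compound or vehicle. Survival was recorded in each group, and the value is the treated-group measurement divided by that of the vehicle-treated control group.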

[1] = dose: 50.0 mg/kg/injection, schedule: Q01DX009 (ip), vehicle: saline with Tween-80
[2] = dose: 100.0 mg/kg/injection, schedule: Q01DX009 (ip), vehicle: saline with Tween-80
[3] = dose: 200.0 mg/kg/injection, schedule: Q01DX009 (ip), vehicle: saline with Tween-80
[4] = dose: 50.0 mg/kg/injection, schedule: Q01DX005 (ip), vehicle: saline with Tween-80
[5] = dose: 200.0 mg/kg/injection, schedule: Q01DX005 (ip), vehicle: saline with Tween-80
[6] = dose: 60.0 mg/kg/injection, schedule: Q01DX005 (ip), vehicle: saline with Tween-80
[7] = dose: 120.0 mg/kg/injection, schedule: Q01DX005 (ip), vehicle: saline with Tween-80
[8] = dose: 240.0 mg/kg/injection, schedule: Q01DX005 (ip), vehicle: saline with Tween-80
[9] = dose: 50.0 mg/kg/injection, schedule: Q01DX009 (ip), vehicle: Klucel (hydroxypropylcellulose) (HPC)
[10] = dose: 100.0 mg/kg/injection, schedule: Q01DX009 (ip), vehicle: Klucel (hydroxypropylcellulose) (HPC)
[11] = dose: 200.0 mg/kg/injection, schedule: Q01DX009 (ip), vehicle: Klucel (hydroxypropylcellulose) (HPC)
[12] = dose: 6.25 mg/kg/injection, schedule: Q01DX009 (ip), vehicle: Klucel (hydroxypropylcellulose) (HPC)
[13] = dose: 12.5 mg/kg/injection, schedule: Q01DX009 (ip), vehicle: Klucel (hydroxypropylcellulose) (HPC)
[14] = dose: 25.0 mg/kg/injection, schedule: Q01DX009 (ip), vehicle: Klucel (hydroxypropylcellulose) (HPC)
[15] = dose: 60.0 mg/kg/injection, schedule: Q01DX005 (ip), vehicle: Klucel (hydroxypropylcellulose) (HPC)
[16] = dose: 120.0 mg/kg/injection, schedule: Q01DX005 (ip), vehicle: Klucel (hydroxypropylcellulose) (HPC)
[17] = dose: 240.0 mg/kg/injection, schedule: Q01DX005 (ip), vehicle: Klucel (hydroxypropylcellulose) (HPC)

CCCCCOCC(=O)OC
T/C [1]: 98 % of control
T/C [2]: 102 % of control
T/C [3]: 103 % of control

CC(C)n1cccc(C#N)c1=S
T/C (dose: 50.0 mg/kg/injection, schedule: Q01DX005 (ip), vehicle: Klucel (hydroxypropylcellulose) (HPC)): 101 % of control
T/C (dose: 100.0 mg/kg/injection, schedule: Q01DX005 (ip), vehicle: Klucel (hydroxypropylcellulose) (HPC)): 98 % of control
T/C (dose: 200.0 mg/kg/injection, schedule: Q01DX005 (ip), vehicle: Klucel (hydroxypropylcellulose) (HPC)): 97 % of control

CN1C(C)(C)CC(C(=O)c2ccccc2)(c2ccccc2)CC1(C)C
T/C (dose: 50.0 mg/kg/injection, schedule: Q01DX005 (ip), vehicle: saline + Tween-80 + alcohol): 107 % of control
T/C (dose: 100.0 mg/kg/injection, schedule: Q01DX005 (ip), vehicle: saline + Tween-80 + alcohol): 100 % of control

N#CC(C(=O)C(=O)Nc1cccc(C(F)(F)F)c1)c1c(Cl)cccc1Cl (stereo not given)
T/C [4]: 98 % of control
T/C (dose: 100.0 mg/kg/injection, schedule: Q01DX005 (ip), vehicle: saline with Tween-80): 100 % of control
T/C [5]: 100 % of control

Cc1c2ccccc2c(C)c2c1cc(C(=O)O)c1ccccc12
T/C (dose: 25.0 mg/kg/injection, schedule: Q01DX005 (ip), vehicle: saline with Tween-80): 113 % of control
T/C [4]: 113 % of control and 116 % of control
T/C [5]: 124 % of control

COC(=O)c1nc(=S)[nH]c(C(=O)OC)c1C(=O)c1ccc(C)cc1
T/C [6]: 106 % of control
T/C [7]: 100 % of control
T/C [8]: 100 % of control

CCOC(=O)CC12C=CC(CC(=O)OCC)(CC1)n1c(=O)n(C)c(=O)n12
T/C (dose: 100.0 mg/kg/injection, schedule: Q04DX002 (ip), vehicle: saline with Tween-80): 100 % of control
T/C (dose: 200.0 mg/kg/injection, schedule: Q04DX002 (ip), vehicle: saline with Tween-80): 100 % of control
T/C (dose: 400.0 mg/kg/injection, schedule: Q04DX002 (ip), vehicle: saline with Tween-80): 101 % of control

CCOC(=O)c1ccc(NC(c2ccc(N(CCCl)CCCl)cc2)P(=O)(Oc2ccccc2)Oc2ccccc2)cc1 (stereo not given)
T/C [9]: 93 % of control
T/C [10]: 96 % of control
T/C [11]: 95 % of control

CCN(CC)CC(C)Nc1ccc(C)c2sc3ccccc3c(=O)c12 (stereo not given)
T/C (dose: 75.0 mg/kg/injection, schedule: Q01DX009 (ip), vehicle: saline): 175 % of control
T/C (dose: 300.0 mg/kg/injection, schedule: Q01DX009 (ip), vehicle: saline): 100 % of control

CCCCC[P+](c1ccccc1)(c1ccccc1)c1ccccc1
T/C (dose: 1.56 mg/kg/injection, schedule: Q01DX009 (ip), vehicle: Klucel (hydroxypropylcellulose) (HPC)): 105 % of control
T/C (dose: 3.12 mg/kg/injection, schedule: Q01DX009 (ip), vehicle: Klucel (hydroxypropylcellulose) (HPC)): 111 % of control
T/C (dose: 3.13 mg/kg/injection, schedule: Q01DX009 (ip), vehicle: Klucel (hydroxypropylcellulose) (HPC)): 121 % of control
T/C [12]: 121 % of control
T/C [13]: 93 % of control
T/C [14]: 100 % of control

CC(=O)OC(C)/C=C\C#N (stereo not given)
T/C (dose: 15.0 mg/kg/injection, schedule: Q01DX005 (ip), vehicle: saline): 98 % of control and 104 % of control and 86 % of control
T/C (dose: 30.0 mg/kg/injection, schedule: Q01DX005 (ip), vehicle: saline): 98 % of control and 100 % of control and 96 % of control

FC(F)(F)c1ccc(NC(=S)SCc2ccc3c(c2)OCO3)cc1
T/C (dose: 50.0 mg/kg/injection, schedule: Q01DX009 (ip), vehicle: suspension in saline): 98 % of control
T/C (dose: 100.0 mg/kg/injection, schedule: Q01DX009 (ip), vehicle: suspension in saline): 93 % of control

CC(=O)Nc1cc2cc(NS(=O)(=O)c3cc(C(F)(F)F)cc(C(F)(F)F)c3)ccc2oc1=O
T/C (dose: 1.5 mg/kg/injection, schedule: Q01DX005 (ip), vehicle: Klucel + Tween-80): 94 % of control
T/C (dose: 3.0 mg/kg/injection, schedule: Q01DX005 (ip), vehicle: Klucel + Tween-80): 99 % of control and 91 % of control
T/C (dose: 6.0 mg/kg/injection, schedule: Q01DX005 (ip), vehicle: Klucel + Tween-80): 96 % of control
T/C (dose: 12.0 mg/kg/injection, schedule: Q01DX005 (ip), vehicle: Klucel + Tween-80): 91 % of control
T/C (dose: 12.5 mg/kg/injection, schedule: Q01DX005 (ip), vehicle: Klucel + Tween-80): 87 % of control
T/C (dose: 50.0 mg/kg/injection, schedule: Q01DX005 (ip), vehicle: Klucel + Tween-80): 95 % of control

O=C1OC2(CCCC2)OC(=O)C1=C/C=C/c1ccc([N+](=O)[O-])o1
T/C (dose: 50.0 mg/kg/injection, schedule: Q04DX003 (ip), vehicle: saline with Tween-80): 99 % of control
T/C (dose: 100.0 mg/kg/injection, schedule: Q04DX003 (ip), vehicle: saline with Tween-80): 100 % of control and 114 % of control and 96 % of control
T/C (dose: 200.0 mg/kg/injection, schedule: Q04DX003 (ip), vehicle: saline with Tween-80): 102 % of control and 112 % of control and 96 % of control
T/C (dose: 400.0 mg/kg/injection, schedule: Q04DX003 (ip), vehicle: saline with Tween-80): 103 % of control and 121 % of control and 86 % of control
T/C (dose: 800.0 mg/kg/injection, schedule: Q04DX003 (ip), vehicle: saline with Tween-80): 115 % of control

Cc1ccc(S(=O)(=O)NCc2cccc([N+](=O)[O-])c2)cc1
T/C [15]: 94 % of control
T/C [16]: 104 % of control
T/C [17]: 98 % of control

O=C1CCC(=O)N1SCc1cccc2ccccc12
T/C [9]: 115 % of control
T/C [10]: 93 % of control
T/C [11]: 102 % of control

C=C(NC(=O)c1csc(-c2nc3c(cc2O)-c2nc(cs2)C(=O)NC(C(C)O)C(=O)N/C(=C\C)c2nc(cs2)C(=O)NC2CC(O)C(=O)OCc4cccc5[nH]c(c(C)c45)C(=O)SCC(NC(=O)c4csc2n4)c2nc-3cs2)n1)C(N)=O (stereo not given)
T/C (dose: 15.0 mg/kg/injection, schedule: Q01DX009 (ip), vehicle: Klucel (hydroxypropylcellulose) (HPC)): 100 % of control
T/C (dose: 30.0 mg/kg/injection, schedule: Q01DX009 (ip), vehicle: Klucel (hydroxypropylcellulose) (HPC)): 99 % of control
T/C (dose: 60.0 mg/kg/injection, schedule: Q01DX009 (ip), vehicle: Klucel (hydroxypropylcellulose) (HPC)): 91 % of control
T/C (dose: 120.0 mg/kg/injection, schedule: Q01DX009 (ip), vehicle: Klucel (hydroxypropylcellulose) (HPC)): 88 % of control

COC(=O)C(C)c1cc2ccccc2[nH]1 (stereo not given)
T/C (dose: 25.0 mg/kg/injection, schedule: Q01DX009 (ip), vehicle: saline with Tween-80): 100 % of control
T/C [1]: 99 % of control
T/C [2]: 113 % of control

O=C(O)CCCCCCCCCCNC(=O)CI
T/C [12]: 107 % of control
T/C [13]: 119 % of control
T/C [14]: 119 % of control

O=C(O)c1cccc(C(=O)O)c1S(=O)c1ccccc1 (stereo not given)
T/C (dose: 100.0 mg/kg/injection, schedule: Q04DX002 (ip), vehicle: other): 102 % of control
T/C (dose: 200.0 mg/kg/injection, schedule: Q04DX002 (ip), vehicle: other): 103 % of control
T/C (dose: 400.0 mg/kg/injection, schedule: Q04DX002 (ip), vehicle: other): 94 % of control

O=C1c2c(O)ccc(N3CCOCC3)c2C(=O)c2c(N3CCOCC3)ccc(O)c21
T/C [15]: 103 % of control
T/C [16]: 98 % of control
T/C [17]: 100 % of control

COc1ccc(S(=O)(=O)OCCCl)cc1
T/C [1]: 100 % of control
T/C [2]: 97 % of control
T/C [3]: 100 % of control

O=C1C(=Cc2ccc(O)cc2)C(=O)c2ccccc21
T/C (dose: 100.0 mg/kg/injection, schedule: Q04DX002 (ip), vehicle: saline): 97 % of control
T/C (dose: 200.0 mg/kg/injection, schedule: Q04DX002 (ip), vehicle: saline): 99 % of control
T/C (dose: 400.0 mg/kg/injection, schedule: Q04DX002 (ip), vehicle: saline): 106 % of control

c1ccc2c(SCCCCCCSc3c4ccccc4nc4ccccc34)c3ccccc3nc2c1
T/C [15]: 90 % of control
T/C [16]: 86 % of control

CC(=O)N1CN2CN(C1)CN(C(C)=O)C2
T/C (dose: 100.0 mg/kg/injection, schedule: Q01DX001 (ip), vehicle: saline): 105 % of control
T/C (dose: 200.0 mg/kg/injection, schedule: Q01DX001 (ip), vehicle: saline): 104 % of control
T/C (dose: 400.0 mg/kg/injection, schedule: Q01DX001 (ip), vehicle: saline): 107 % of control

Cc1cc(=O)[nH]c2cc(NN)ccc12
T/C [6]: 96 % of control
T/C [7]: 92 % of control
T/C [8]: 95 % of control

Cc1ccc(I)c(C(C)(C)O)c1
T/C [9]: 100 % of control
T/C [10]: 95 % of control
T/C [11]: 97 % of control
